From ChEMBL document CHEMBL5512620, “Design and synthesis of forsythin derivatives as anti-inflammatory agents for acute lung injury” (Eur J Med Chem, 2024)
Values belong to the molecule of their own block, whether it stands above or below them. Activity calls are given as the source filed them. No cut-off for these calls is given here.

What was measured:
RAW264.7 [1] = assay: Cytotoxicity activity mouse RAW264.7 cells assessed as effect on cell viability at 25 uM incubated for 24 hrs by MTT assay; format: toxicity, cell-based; conditions: raw264.7, 24 h
RAW264.7 [2] = assay: Antiinflammatory activity in mouse RAW264.7 cells assessed as inhibition of LPS-induced IL-6 secretion by measuring fold change at 25 uM preincubated with compound for 1 hr followed by LPS-induction and measured after 24 hrs by ELISA analysis relative to Forsythin; format: functional; conditions: time 25 hrs
RAW264.7 [3] = assay: Antiinflammatory activity in mouse RAW264.7 cells assessed as reduction in LPS-induced NO release preincubated with compound for 1 hr followed by LPS-induction and measured after 24 hrs by ELISA analysis relative to control; format: functional, cell-based
RAW264.7 [4] = assay: Antiinflammatory activity in mouse RAW264.7 cells assessed as reduction in LPS-induced IL-6 production preincubated with compound for 1 hr followed by LPS-induction and measured after 24 hrs by ELISA analysis relative to control; format: functional, cell-based
RAW264.7 [5] = assay: Antiinflammatory activity in mouse RAW264.7 cells assessed as reduction in LPS-induced TNF-alpha production preincubated with compound for 1 hr followed by LPS-induction and measured after 24 hrs by ELISA analysis relative to control; format: functional, cell-based
RAW264.7 [6] = assay: Anti-inflammatory activity in mouse RAW264.7 cells assessed as inhibition of LPS-induced iNOS […] expression preincubated with compound for 1 hr followed by LPS stimulation and measured after 24 hrs by Western blot analysis; format: functional, cell-based; conditions: dose 6.25-25 µM, time 25.0 hrs
RAW264.7 [7] = assay: Anti-inflammatory activity in mouse RAW264.7 cells assessed as inhibition of LPS-induced COX-2 […] expression preincubated with compound for 1 hr followed by LPS stimulation and measured after 24 hrs by Western blot analysis; format: functional, cell-based; conditions: dose 6.25-25 µM, time 25.0 hrs
RAW264.7 [8] = assay: Anti-inflammatory activity in mouse RAW264.7 cells assessed as inhibition of LPS-induced iNOS […] expression at 25 uM preincubated with compound for 1 hr followed by LPS stimulation and measured after 24 hrs by Western blot analysis; format: functional, cell-based; conditions: time 25.0 hrs
RAW264.7 [9] = assay: Anti-inflammatory activity in mouse RAW264.7 cells assessed as inhibition of LPS-induced COX-2 […] expression at 25 uM preincubated with compound for 1 hr followed by LPS stimulation and measured after 24 hrs by Western blot analysis; format: functional, cell-based; conditions: time 25.0 hrs
[10] = molecular target: Transcription factor p65 (Mus musculus) (UniProt Q04207); assay: Inhibition of NF-kappaB p65 phosphorylation in mouse RAW264.7 cells at 6.25 to 25 uM pretreated with compound for 1 hr followed by LPS-induction and measured after 24 hrs by Western blot analysis; format: cell-based; conditions: dose 6.25-25 µM, time 25.0 hrs
RAW264.7 [11] = assay: Inhibition of IkappaB phosphorylation in mouse RAW264.7 cells at 6.25 to 25 uM pretreated with compound for 1 hr followed by LPS-induction and measured after 24 hrs by Western blot analysis; format: cell-based; conditions: dose 6.25-25 µM, time 25.0 hrs
[12] = molecular target: Transcription factor p65 (Mus musculus) (UniProt Q04207); assay: Inhibition of NF-kappaB signaling pathway in LPS-induced mouse RAW264.7 cells assessed as reduction in phosphorylated NF-kappaB to p65 relative expression at 6.25 to 25 uM pretreated with compound for 1 hr followed by LPS-induction and measured after 24 hrs by Western blot analysis; format: cell-based; conditions: dose 6.25-25 µM, time 25.0 hrs
RAW264.7 [13] = assay: Inhibition of NF-kappaB signaling pathway in LPS-induced mouse RAW264.7 cells assessed as reduction in phosphorylated IkappaB to IkappaB relative expression at 6.25 to 25 uM pretreated with compound for 1 hr followed by LPS-induction and measured after 24 hrs by Western blot analysis; format: cell-based; conditions: dose 6.25-25 µM, time 25.0 hrs
RAW264.7 [14] = assay: Antiinflammatory activity in mouse RAW264.7 cells assessed as reduction in LPS-induced ERK phosphorylation at 6.25 to 25 uM preincubated with compound for 1 hr followed by LPS-induction and measured after 24 hrs by Western blot analysis; format: functional, cell-based; conditions: dose 6.25-25 µM, time 25.0 hrs
RAW264.7 [15] = assay: Antiinflammatory activity in mouse RAW264.7 cells assessed as reduction in LPS-induced JNK phosphorylation at 6.25 to 25 uM preincubated with compound for 1 hr followed by LPS-induction and measured after 24 hrs by Western blot analysis; format: functional, cell-based; conditions: dose 6.25-25 µM, time 25.0 hrs
RAW264.7 [16] = assay: Antiinflammatory activity in mouse RAW264.7 cells assessed as reduction in LPS-induced p38 phosphorylation at 6.25 to 25 uM preincubated with compound for 1 hr followed by LPS-induction and measured after 24 hrs by Western blot analysis; format: functional, cell-based; conditions: dose 6.25-25 µM, time 25.0 hrs
Mus musculus [17] = assay: Antiinflammatory activity in LPS-induced acute lung injury BALB/c mouse model assessed as reduction in cell infiltration in lung at 20 mg/kg, po administered for 3 days followed by LPS-induction for 1 hr and measured after 6 hrs by H and E staining based analysis; format: functional, organism-based; conditions: time 79.0 hrs
Mus musculus [18] = assay: Antiinflammatory activity in LPS-induced acute lung injury BALB/c mouse model assessed as reduction in lung edema at 20 mg/kg, po administered for 3 days followed by LPS-induction for 1 hr and measured after 6 hrs by H and E staining based analysis; format: functional, organism-based; conditions: time 79.0 hrs
Mus musculus [19] = assay: Antiinflammatory activity in LPS-induced acute lung injury BALB/c mouse model assessed as improvement in alveolar structure at 20 mg/kg, po administered for 3 days followed by LPS-induction for 1 hr and measured after 6 hrs by H and E staining based analysis; format: functional, organism-based; conditions: time 79.0 hrs
Mus musculus [20] = assay: Antiinflammatory activity in LPS-induced acute lung injury BALB/c mouse model assessed as reduction in W/D weight gain ratio in lung at 5 to 20 mg/kg, po administered for 3 days followed by LPS-induction for 1 hr and measured after 6 hrs; format: functional, organism-based; conditions: dose 5-20 mg/kg, time 79.0 hrs
Mus musculus [21] = assay: Antiinflammatory activity in LPS-induced acute lung injury BALB/c mouse model assessed as downregulation of IL-6 level in BALF at 5 to 20 mg/kg, po administered for 3 days followed by LPS-induction for 1 hr and measured after 6 hrs by ELISA analysis; format: functional, organism-based; conditions: dose 5-20 mg/kg, time 79.0 hrs
Mus musculus [22] = assay: Antiinflammatory activity in LPS-induced acute lung injury BALB/c mouse model assessed as downregulation of TNF-alpha level in BALF at 5 to 20 mg/kg, po administered for 3 days followed by LPS-induction for 1 hr and measured after 6 hrs by ELISA analysis; format: functional, organism-based; conditions: dose 5-20 mg/kg, time 79.0 hrs
Mus musculus [23] = assay: Antiinflammatory activity in LPS-induced acute lung injury BALB/c mouse model assessed as reduction in NO production in BALF at 5 to 20 mg/kg, po administered for 3 days followed by LPS-induction for 1 hr and measured after 6 hrs by Griess reagent based analysis; format: functional, organism-based; conditions: dose 5-20 mg/kg, time 79.0 hrs
Mus musculus [24] = assay: Antiinflammatory activity in LPS-induced acute lung injury BALB/c mouse model assessed as downregulation of IL-6 level in BALF at 20 mg/kg, po administered for 3 days followed by LPS-induction for 1 hr and measured after 6 hrs by ELISA analysis; format: functional, organism-based; conditions: time 79.0 hrs
Mus musculus [25] = assay: Antiinflammatory activity in LPS-induced acute lung injury BALB/c mouse model assessed as downregulation of TNF-alpha level in BALF at 20 mg/kg, po administered for 3 days followed by LPS-induction for 1 hr and measured after 6 hrs by ELISA analysis; format: functional, organism-based; conditions: time 79.0 hrs
Mus musculus [26] = assay: Antiinflammatory activity in LPS-induced acute lung injury BALB/c mouse model assessed as reduction in NO production in BALF at 20 mg/kg, po administered for 3 days followed by LPS-induction for 1 hr and measured after 6 hrs by Griess reagent based analysis; format: functional, organism-based; conditions: time 79.0 hrs
Mus musculus [27] = assay: Antiinflammatory activity in LPS-induced po dosed acute lung injury BALB/c mouse model assessed as inhibition of iNOS expression administered for 3 days followed by LPS-induction for 1 hr and measured after 6 hrs by Western blot analysis; format: functional, organism-based; conditions: dose 5-20 mg/kg, time 79.0 hrs
Mus musculus [28] = assay: Antiinflammatory activity in LPS-induced po dosed acute lung injury BALB/c mouse model assessed as inhibition of COX-2 expression administered for 3 days followed by LPS-induction for 1 hr and measured after 6 hrs by Western blot analysis; format: functional, organism-based; conditions: dose 5-20 mg/kg, time 79.0 hrs
RAW264.7 [29] = assay: Antiinflammatory activity in mouse RAW264.7 cells assessed as inhibition of LPS-induced IL-6 production at 25 uM preincubated with compound for 1 hr followed by LPS-induction and measured after 24 hrs by ELISA analysis relative to control; format: functional; conditions: time 25 hrs
RAW264.7 [30] = assay: Antiinflammatory activity in mouse RAW264.7 cells assessed as inhibition of LPS-induced IL-6 release at 25 uM preincubated with compound for 1 hr followed by LPS-induction and measured after 24 hrs by ELISA analysis; format: functional, cell-based; conditions: time 25.0 hrs

Chain of Transcription factor p65 (Mus musculus) (Q04207 whole entry): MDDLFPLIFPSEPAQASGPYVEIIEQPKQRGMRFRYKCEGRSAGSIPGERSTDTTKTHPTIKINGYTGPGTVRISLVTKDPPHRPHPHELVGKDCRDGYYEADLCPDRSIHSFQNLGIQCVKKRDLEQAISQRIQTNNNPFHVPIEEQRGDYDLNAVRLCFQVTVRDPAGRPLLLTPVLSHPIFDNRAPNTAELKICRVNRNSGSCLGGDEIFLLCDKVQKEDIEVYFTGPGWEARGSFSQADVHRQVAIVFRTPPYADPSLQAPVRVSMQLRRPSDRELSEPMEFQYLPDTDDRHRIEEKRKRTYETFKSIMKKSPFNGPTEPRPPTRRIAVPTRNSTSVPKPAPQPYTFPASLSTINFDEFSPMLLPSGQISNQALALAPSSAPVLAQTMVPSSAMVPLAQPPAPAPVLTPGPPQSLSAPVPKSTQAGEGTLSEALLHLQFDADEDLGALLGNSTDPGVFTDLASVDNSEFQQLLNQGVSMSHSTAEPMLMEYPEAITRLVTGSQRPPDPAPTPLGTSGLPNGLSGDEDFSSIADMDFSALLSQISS

Structure (SMILES): COc1ccc([C@H]2OC[C@@H]3[C@H]2CO[C@@H]3c2ccc(O[C@@H]3O[C@@H](COC(=O)c4nccc5ccccc45)[C@H](O)[C@@H](O)[C@@H]3O)c(OC)c2)cc1OC (stereo in doubt)
Activity (RAW264.7 [1]): Non-Toxic

Structure (SMILES): COc1ccc([C@@H]2OC[C@H]3[C@@H]2CO[C@@H]3c2ccc(O[C@H]3O[C@H](COC(=O)c4cn(-c5ccc(F)cc5)nn4)[C@@H](O)[C@H](O)[C@H]3O)c(OC)c2)cc1OC
Activity (RAW264.7 [1]): Non-Toxic

Structure (SMILES): COc1ccc([C@H]2OC[C@@H]3[C@H]2CO[C@@H]3c2ccc(O[C@@H]3O[C@@H](COC(=O)c4cccc5ncccc45)[C@H](O)[C@@H](O)[C@@H]3O)c(OC)c2)cc1OC (stereo in doubt)
Activity (RAW264.7 [1]): Non-Toxic

IC50 (RAW264.7 [3]): 10.9 µM | IC50 (RAW264.7 [4]): 4.93 µM | IC50 (RAW264.7 [5]): > 25 µM | inhibition [10]: Active | inhibition [12]: Active
Structure (SMILES): COc1ccc([C@@H]2OC[C@H]3[C@@H]2CO[C@@H]3c2ccc(O[C@H]3O[C@H](COC(=O)[C@H](Cc4ccccc4)NC(=O)OC(C)(C)C)[C@@H](O)[C@H](O)[C@H]3O)c(OC)c2)cc1OC
Activity (RAW264.7 [1]): Non-Toxic | fold change (FC) (RAW264.7 [2]): 7.5 | Activity (RAW264.7 [6]): Dose-Dependent Effect | Activity (RAW264.7 [7]): Dose-Dependent Effect | Activity (RAW264.7 [8]): Active | Activity (RAW264.7 [9]): Active | inhibition (RAW264.7 [11]): Active | inhibition (RAW264.7 [13]): Active | Activity (RAW264.7 [14]): Active | Activity (RAW264.7 [15]): Active | Activity (RAW264.7 [16]): inactive | Activity (Mus musculus [17]): Active | Activity (Mus musculus [18]): Active | Activity (Mus musculus [19]): Active | Activity (Mus musculus [20]): Active | Activity (Mus musculus [21]): Active | Activity (Mus musculus [22]): Active | Activity (Mus musculus [23]): Active | Activity (Mus musculus [24]): Active | Activity (Mus musculus [25]): Active | Activity (Mus musculus [26]): Active | Activity (Mus musculus [27]): Dose-Dependent Effect | Activity (Mus musculus [28]): Dose-Dependent Effect | inhibition at 25 µM (RAW264.7 [29]): 91.8% | Activity (RAW264.7 [30]): Active

Structure (SMILES): COc1ccc([C@@H]2OC[C@H]3[C@@H]2CO[C@@H]3c2ccc(O[C@H]3O[C@H](COC(=O)CNC(=O)OC(C)(C)C)[C@@H](O)[C@H](O)[C@H]3O)c(OC)c2)cc1OC
Activity (RAW264.7 [1]): Non-Toxic

Structure (SMILES): COc1ccc([C@@H]2OC[C@H]3[C@@H]2CO[C@@H]3c2ccc(O[C@H]3O[C@H](COC(=O)/C=C/c4ccccc4)[C@@H](O)[C@H](O)[C@H]3O)c(OC)c2)cc1OC
Activity (RAW264.7 [1]): Non-Toxic

Structure (SMILES): COc1ccc([C@@H]2OC[C@H]3[C@@H]2CO[C@@H]3c2ccc(O[C@H]3O[C@H](COC(=O)[C@H](CCSC)NC(=O)OC(C)(C)C)[C@@H](O)[C@H](O)[C@H]3O)c(OC)c2)cc1OC
Activity (RAW264.7 [1]): Non-Toxic

Structure (SMILES): COc1ccc([C@@H]2OC[C@H]3[C@@H]2CO[C@@H]3c2ccc(O[C@H]3O[C@H](COC(=O)[C@H](CC(C)C)NC(=O)OC(C)(C)C)[C@@H](O)[C@H](O)[C@H]3O)c(OC)c2)cc1OC
Activity (RAW264.7 [1]): Non-Toxic
